Results published in patent US9546367B2, “siRNA compositions and methods for inhibiting gene expression in tumor initiating cells of breast cancer” (priority 2011, dated 2017).

Legend:
[1] = test system: BT549; test: in vitro MSFE with nanoliposome/silicon particle packaged siRNA; type: cell-based, human; conditions: for secondary MSFE: BT549, siRNA, Day 8, p<0.05; for primary and secondary MSFE: BT549 incubated with MSV/siRNA
Procedure: (§1) “Claudin-low”-like human breast cancer cell lines (SUM159 and BT549) were plated in 24-well ultralow attachment plates with mammary epithelial growth medium (MEGM) (5,000 cells/well). Both cell lines were then treated with 1 μg/well/6 wells of silicon particles loaded with DOPC nanoliposomes/siRNA. The primary MSs were allowed to grow for 3 days. MFs were counted on Day 3 with a GelCount colony counter (Oxford Optronix, Oxford, UK). Mammosphere-Forming Efficiency (MSFE) was calculated by dividing the number of MSs by the number of seeded cells. In addition, established MSs were serially passaged by dissociation, and single cells were re-plated on fresh 24-well, ultra-low-attachment plates to form secondary mammospheres, which were counted after 3 days. One-way ANOVA and Tukey tests were performed. A p-value of less than 0.05 was considered significant.
(§2) To develop a more clinically relevant model, two of the identified candidates (MLF2 and RPL39L) were compared to Stat3 (positive control), and their siRNA sequences identified within the shRNA vector. These siRNAs were then packaged in nanoliposomes and tested for MSFE using the same protocol as above, except for the addition of packaged siRNA instead of lentiviral shRNA. (N.B. wherein shRNA requires a promoter and needs to be transcribed in order to function, siRNA functions by itself once incorporated into recipient cells).
(§3) To develop siRNA nanotherapeutics targeting TIC, studies have been conducted to confirm the essential roles of the candidate TIC genes. Exemplary siRNA oligonucleotides specific for STAT3, MFL2, and RPL39L were formulated into nanoliposomes, which were then loaded into porous silicon MSV particles. For in vitro assay, BT549 and SUM159 cells were incubated with MSV/siRNA, and primary and secondary MSFE was measured. […] For in vivo assessment, SCID/Beige mice were inoculated with SUM159 tumor, and treated with MDS/siRNA delivered by tail vein injection. Cells were then isolated from tumor mice 3 weeks later, and MSFE was measured. […] These studies indicate that 1) MDS/siRNA could successfully be delivered to tumor tissues effectively in vivo, 2) uptake of MDS/siRNA by TIC was efficient, and 3) MFL2 and RPL39L were essential genes for TIC.
(§4) The siRNA sequences of two candidate genes RPL39 and MLF2 were packaged in nanoliposomes and the effects on MSFE determined in vitro, as described above, using packaged siRNA instead of lentiviral shRNA.

[2] = test system: SUM159; test: as above; type: cell-based, human; conditions: for secondary MSFE: SUM159, siRNA, Day 8, p<0.05; for primary and secondary MSFE: SUM159 incubated with MSV/siRNA
Procedure: as §1, §2, §3, §4

Substance | secondary MSFE [1] | primary and secondary MSFE [1] | secondary MSFE [2] | primary and secondary MSFE [2]
MLF2 siRNA: siRNA against myeloid leukemia factor 2; sense SEQ ID NO: 3 CCCTGATGGATCCCTTTGCTAT, antisense SEQ ID NO: 19 ATAGCAAAGGGATCCATCAGGA (packaged in nanoliposomes, chemistry not given here, further chemistry not given here) | significantly reduced | significant reduction | significantly reduced | significant reduction
RPL39 siRNA: siRNA against ribosomal protein L39-like; sense SEQ ID NO: 15 ACGATTCCTGGCCAAGAAACAA, antisense SEQ ID NO: 31 TTGTTTCTTGGCCAGGAATCGC (listed as DNA, chemistry not fully specified) | significantly reduced | significant reduction | significantly reduced | significant reduction
